This data set can be described thus: in vitro. Conditions: human, hela cells.

As a reminder, the viability is a read-out of living cells in per cent, often relative to untreated cells. With `OCCN1CCN(C2CCN(Cc3ccccc3Cl)CC2)CC1` [CBK264710], the viability at 28.5 h, 10 µM (% viability) was found to be 90.1%.
Still for that read-out and setting: for `Nc1nonc1-c1nc2ccccc2n1CC(=O)NCc1ccccc1` [CBK264711] the value was 92.1%; for `O=C(O)c1cc(-c2ccc(/C=C3\SC(=S)N(Cc4cccnc4)C3=O)o2)ccc1Cl` [CBK264712], 112%; for `Cc1cc(C(=O)O)ccc1-c1ccc(/C=N/n2cnnc2)o1` [CBK264713], 92.5%.
Still for that read-out and setting: in the case of `CN(C)S(=O)(=O)c1ccc(C(=O)C2=C(O)C(=O)N(Cc3cccnc3)C2c2ccc(F)cc2)cc1` (centres unmarked) [CBK264715] it was 94%.
Same read-out and setting: in the case of `C=CCOc1ccc(C(=O)C2=C(O)C(=O)N(Cc3cccnc3)C2c2ccc(Cl)cc2)c(C)c1` (centres unmarked) [CBK264716] it was 99.6%; in that of `COc1ccc(C(=O)C2=C(O)C(=O)N(CCN3CCOCC3)C2c2ccc(Cl)cc2)cc1` (centres unmarked) [CBK264718], 103%; in that of `O=C(COc1ccc(Cl)cc1Cl)Nc1cccc(NC(=O)c2ccccc2Cl)c1` [CBK264726], 105%.
`CC(Cn1nnc2ccccc21)C(=O)O` (centres unmarked) [CBK264727]: the viability at 28.5 h, 10 µM (% viability) worked out at 117%.
On the same count and under the same terms, in the case of `Clc1ccc(OCc2nc3ccccc3n2CCOc2ccccc2)c(Cl)c1` [CBK264728] it was 94.8%.
On the same count and under the same terms, in the case of `CN(C)CCN1C(=O)C(O)=C(C(=O)c2ccc(S(=O)(=O)N(C)C)cc2)C1c1cccnc1` (centres unmarked) [CBK264729] it was 99.7%; in that of `c1ccc(CN2CCC(N3CCC(N4CCc5ccccc5C4)CC3)CC2)cc1` [CBK264730G], 91%; in that of `CCOC(=O)CN1C(=O)S/C(=C/c2cc(C)n(-c3cc(C)ccn3)c2C)C1=O` [CBK264731], 95.2%.
The same measure, in the same setting: for `O=C(Nc1ccc(S(=O)(=O)Nc2nccs2)cc1)C1CC(=O)N(c2ccccc2)C1` (centres unmarked) [CBK264732] the value was 104%; for `O=C(NCCSCc1ccc(Cl)cc1Cl)c1ccc(Br)cc1` [CBK264733], 114%; for `COc1ccccc1N1CCN(C2CCN(Cc3ccc([N+](=O)[O-])cc3)CC2)CC1` [CBK264734G], 98.8%.
Turning to `O=C(O)CCc1ccc(-c2cccs2)n1NC(=O)c1ccc(Cl)cc1` [CBK264738], the viability at 28.5 h, 10 µM (% viability) is 95.5%.
For `COc1ccc(C(=O)Oc2ccc(C(c3c(C)n[nH]c3O)c3c(C)n[nH]c3O)cc2)cc1` [CBK264740], the viability at 28.5 h, 10 µM came out at 112%.
For `Cc1ccc(N(CC(O)CNC23CC4CC(CC(C4)C2)C3)S(=O)(=O)c2ccccc2)cc1` (centres unmarked) [CBK264741], the viability at 28.5 h, 10 µM (% viability) was 110%.
The same measure, in the same setting: for `O=C1CC(c2ccco2)CC(=O)C1=CNCCN1CCN(C(=O)Nc2ccc(Cl)cc2)CC1` (centres unmarked) [CBK264743] the value was 80.2%.
For `Cc1cc(/C=C2/NC(=O)NC2=O)c(C)n1-c1ccc(S(N)(=O)=O)cc1` [CBK264747], the viability at 28.5 h, 10 µM (% viability) came out at 106%.
Same read-out and setting: for `O=[N+]([O-])c1ccc(N2CCN(S(=O)(=O)c3ccc(Cl)cc3)CC2)cc1NCc1cccnc1` [CBK264749] the value was 123%.
On to `O=C(Cc1ccc(Cl)cc1)Nc1cccc(C(=O)Nc2ccccc2C(=O)O)c1` [CBK264750], for which the viability at 28.5 h, 10 µM (% viability) amounted to 107%.
Still for that read-out and setting: in the case of `COc1cc(/C=C/C(=O)NCc2ccccn2)cc(OC)c1OC` [CBK264752] it was 91.5%.
On the same count and under the same terms, in the case of `Cc1ccc(OCC(=O)O/N=C(\N)c2ccccn2)cc1C` [CBK264755] it was 101%; in that of `COc1ccc(NC2=C(NCCO)C(=O)c3ccccc3C2=O)cc1` [CBK264756], 102%.
On the same count and under the same terms, in the case of `O=C(CCC(=O)c1ccc(Cl)cc1)OCC(=O)c1cccc(I)c1` [CBK264760] it was 89.9%; in that of `O=C(/C=C\c1ccccc1)CC1(O)C(=O)N(Cc2cccc3ccccc23)c2ccccc21` (centres unmarked) [CBK264761], 96.7%; in that of `CC(=O)Nc1ccc(C(=O)Nc2ccc(S(=O)(=O)N3CCOCC3)cc2)cc1` [CBK264763], 95.1%.
Regarding `C#CCOc1ccc(/C=N/N=C(\N)c2nonc2N)cc1OC` [CBK264765], the viability at 28.5 h, 10 µM (% viability) came out at 109%.
As for `CC(=O)Nc1ccc(NC(=O)/C=C/c2ccc(Cl)cc2)cc1` [CBK264766], the viability at 28.5 h, 10 µM (% viability) was found to be 116%.
Consider `O=[N+]([O-])c1ccccc1S(=O)(=O)Nc1ccc(S(=O)(=O)Nc2ncccn2)cc1` [CBK264768], for which, under “% viability”, the viability at 28.5 h, 10 µM was 109%.
Consider `Cc1cc(/C=C2\SC(=O)N(CC(=O)Nc3ccccc3F)C2=O)c(C)n1-c1cccnc1` [CBK264770], for which, for the setting “% viability”, the viability at 28.5 h, 10 µM was determined as 95.5%.
On the same count and under the same terms, for `CN1CCN(c2ccc(C(=O)O)cc2)CC1` [CBK264773] the value was 94.8%; for `Cc1ccc(-c2ccc(CCC(=O)O)n2NC(=O)c2ccc([N+](=O)[O-])cc2)cc1` [CBK264776], 109%; for `O=C(Nc1ccc(S(=O)(=O)Nc2ccc(Cl)c(C(F)(F)F)c2)cc1)c1ccc(CN2CCOCC2)cc1` [CBK264777], 104%.
The same measure, in the same setting: in the case of `Cc1ccc(OCC(O)CNC(=O)c2ccccc2C(=O)O)cc1` (centres unmarked) [CBK264778] it was 116%.
Same read-out and setting: in the case of `Cc1ccc(C)c(NS(=O)(=O)c2ccc(NC(=O)c3ccc(CN4CCOCC4)cc3)cc2)c1` [CBK264780] it was 104%.
Take `O=C(O)CCc1ccc(-c2ccc(Cl)cc2)[nH]1` [CBK264781]: where the note is “% viability”, the viability at 28.5 h, 10 µM is 100%.
Still for that read-out and setting: in the case of `CC(C)(C)c1ccc(OCCCC(=O)Nc2ccc(N3CCOCC3)cc2)cc1` [CBK264783] it was 88.8%; in that of `O=C1CC(c2ccc(F)cc2)CC(=O)C1=CNCCN1CCN(C(=S)Nc2ccccc2)CC1` (centres unmarked) [CBK264784], 94.1%.
The same measure, in the same setting: in the case of `O=C1CC(c2cccs2)CC(=O)C1=CNCCN1CCNCC1` (centres unmarked) [CBK264785] it was 105%; in that of `O=C(O)CN1C(=O)/C(=C/C2=Cc3ccccc3OC2)SC1=S` [CBK264787], 103%; in that of `O=C(Nc1ccc(S(=O)(=O)N2CCOCC2)cc1)c1cc(-c2ccccc2)nc2ccccc12` [CBK264790], 103%.
For `CN1CCN(c2cc(N3CCN(S(=O)(=O)c4ccc5ccccc5c4)CC3)ccc2[N+](=O)[O-])CC1` [CBK264791], the viability at 28.5 h, 10 µM (% viability) worked out at 97.6%.
The same measure, in the same setting: for `O=C(CCN1C(=O)/C(=C\C=C\c2ccccc2)SC1=S)Nc1cc(Cl)ccc1O` [CBK264792] the value was 96.2%; for `Cc1cccn2c(=O)c(/C=C3\SC(=S)N(CCCC(=O)O)C3=O)c(N3CCC(C)CC3)nc12` [CBK264793], 107%; for `Cc1ccc(S(=O)(=O)N2CCN(c3ccc([N+](=O)[O-])c(N4CCN(C)CC4)c3)CC2)cc1` [CBK264795], 118%.
The same measure, in the same setting: for `O=C(O)CCc1ccc(-c2cccs2)n1-c1ccc(Cl)c(Cl)c1` [CBK264797] the value was 88.7%; for `O=C(CCN1C(=O)/C(=C\C=C\c2ccccc2)SC1=S)Nc1cccc(C(=O)O)c1` [CBK264798], 109%; for `O=[N+]([O-])c1ccccc1OCCCn1c2ccccc2c2ccccc21` [CBK264799], 92.1%.
On the same count and under the same terms, for `Cc1ccccc1Nc1nc(-c2ccc([N+](=O)[O-])cc2)nc2ccccc12` [CBK264803] the value was 119%; for `Cc1cccc(C(=O)Oc2ccc(C(c3c(C)n[nH]c3O)c3c(C)n[nH]c3O)cc2)c1` [CBK264804], 102%.

Source of the values: publication PMC12040169 (PLOS Biology, 2025).
